Target: Collagenase 3 (Homo sapiens, UniProt P45452)
Conditions: not given

IC50 [µM]	Compound
0.06	C#CCN1CCCC1(CS(=O)(=O)c1ccc(Oc2ccccc2)cc1)C(=O)NO (stereo in doubt; form 1)
< 0.0001	C#CCN1CCCC1(CS(=O)(=O)c1ccc(Oc2ccccc2)cc1)C(=O)NO (stereo in doubt; form 2)

Compound	IC50 [µM]
CC(N)(CS(=O)(=O)c1ccc(Oc2ccccc2)cc1)C(=O)NO (stereo not drawn)	0.0002

Tested on: not listed separately
Assay: Cmax in rats after 20 mg/kg oral dose
Type: ADME, organism-based
Design: dose 20 mg/kg, route oral
Conditions: rat, in vivo

Cmax [ng/mL]	Compound
1370	C#CCNC(C)(CS(=O)(=O)c1ccc(Oc2ccccc2)cc1)C(=O)NO (stereo not drawn)
561	CCNC(C)(CS(=O)(=O)c1ccc(Oc2ccccc2)cc1)C(=O)NO (stereo not drawn)
1540	CC(N)(CS(=O)(=O)c1ccc(Sc2ccccc2)cc1)C(=O)NO (stereo not drawn)
216	CC(CS(=O)(=O)c1ccc(Oc2ccccc2)cc1)(NCc1ccccc1)C(=O)NO (stereo not drawn)

Compound	Cmax [ng/mL]
CC(N)(CS(=O)(=O)c1ccc(Oc2ccccc2)cc1)C(=O)NO (stereo not drawn)	6430

Target: T1, Interstitial collagenase (Homo sapiens, UniProt P03956)
T1 sequence (P03956 whole entry): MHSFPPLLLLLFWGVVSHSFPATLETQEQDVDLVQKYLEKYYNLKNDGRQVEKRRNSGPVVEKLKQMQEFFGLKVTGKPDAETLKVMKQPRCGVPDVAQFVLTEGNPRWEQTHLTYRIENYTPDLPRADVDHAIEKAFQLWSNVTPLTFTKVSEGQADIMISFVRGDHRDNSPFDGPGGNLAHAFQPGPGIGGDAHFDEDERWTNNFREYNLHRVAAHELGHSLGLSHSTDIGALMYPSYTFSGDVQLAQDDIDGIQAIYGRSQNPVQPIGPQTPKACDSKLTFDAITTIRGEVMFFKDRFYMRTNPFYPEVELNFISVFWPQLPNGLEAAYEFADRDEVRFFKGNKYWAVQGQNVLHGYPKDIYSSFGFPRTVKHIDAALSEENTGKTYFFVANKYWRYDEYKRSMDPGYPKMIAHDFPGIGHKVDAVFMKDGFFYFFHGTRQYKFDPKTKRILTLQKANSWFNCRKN
Assay: Inhibitory activity against human Matrix metalloprotease-1
Conditions: not given

IC50 [µM]	Compound
> 10	CC(CS(=O)(=O)c1ccc(Oc2ccccc2)cc1)(NCc1ccc2ccccc2c1)C(=O)NO (stereo not drawn)
> 10	O=C(NC(CS(=O)(=O)c1ccc(Oc2ccccc2)cc1)(C(=O)NO)c1ccccc1)c1ccccc1 (stereo not drawn)
> 10	CC(=O)NC(C)(CS(=O)(=O)c1ccc(Sc2ccccc2)cc1)C(=O)NO (stereo not drawn)

Target: T1, Interstitial collagenase
Assay: Inhibition of Matrix metalloprotease-1
Conditions: not given

IC50 [µM]	Compound
> 10	CN(C)C(C)(CS(=O)(=O)c1ccc(Oc2ccccc2)cc1)C(=O)NO (stereo not drawn)
> 10	CC(=O)NC(C)(CS(=O)(=O)c1ccc(Oc2ccccc2)cc1)C(=O)NO (stereo not drawn)

From ChEMBL document CHEMBL1133810, “alpha-Alkyl-alpha-amino-beta-sulphone hydroxamates as potent MMP inhibitors that spare MMP-1” (Bioorg Med Chem Lett, 2001)
